Assay results taken from USRE39192E1, “Supplemented and unsupplemented tissue sealants, methods of their production and use” (American National Red Cross, priority 1990, dated 2006).

Legend:
[1] = Saturation concentration of 5-FU in water; assay type: physicochemical
[2] = Release of 5-FU from FG clots; conditions: clots containing 50 mg of solid anhydrous 5-FU
[3] = system: human ovarian carcinoma cell (OVACAR); test: Growth inhibition of OVCAR cells by eluates of taxol-supplemented fibrin sealant (MTT assay); assay type: cell-based; conditions: taxol in solid anhydrous form
Procedure: The kinetics of taxol delivery from fibrin sealant were initially evaluated, by incorporating taxol (0.26 mg), either as an anhydrous solid or dissolved in ethanol, into 400 μl fibrin sealant composition. The resulting supplemented fibrin matrices were then placed in 2 ml histidine buffer, and incubated at 37° C. The buffer was exchanged after two days, and again ten days later. The relative concentration of taxol in the resulting eluates determined by measuring their ability to inhibit the growth of a human ovarian carcinoma cell (OVACAR) in vitro (MacPhee et al., In Current Trends in Surgical Tissue Adhesives: Proceedings of the First International Symposium on Surgical Adhesives, R. Saltz and D. Sierra, eds. Springer-Verlag).
Briefly, 1000 OVCAR cells in 100 μl of growth medium were plated into each well of a 96 well culture plate and incubated for 24 hours. A 100 μl volume of various dilutions of the eluates was then placed into the wells (10 wells per dilution), and the plate incubated at 37° C. After five days, the number of cells in each well was measured using the MTT assay (Rapaport et al., American Journal of Clinical Pathology 97:84 (1992)). […] The resulting chromaphore is detected by spectrophotometry at 570 nm. […]

[4] = system: human umbilical endothelial cells; test: Human umbilical endothelial cells embedded in FG; assay type: cell-based; conditions: within 24 hours, maintained at least 5 days
Procedure: To study their growth, human umbilical endothelial cells, 10^5 or more cells per ml, were embedded in FG, the protein concentration of which was 4 mg/ml. The concentration of thrombin in the FG was adjusted to 0.6 NIH U/ml. The culture medium used in all of the experiments was M199 (Sigma Chemical Co., St. Louis, Mo.) supplemented with 10% fetal bovine serum, 10 μg/ml streptomycin, 100 U/ml penicillin, 1 ng/ml FGF-1 and 10 U/ml heparin.
As a control, an identical cell suspension was cultured on a surface coated with fibronectin at 10 μg/cm^2. […] FIGS. 9 and 10 show this situation at 24 and 48 hours, respectively.

[5] = system: NIH 3T3 fibroblasts; test: Cell chemotaxis assay (modified Boyden's chamber), NIH 3T3 fibroblasts; assay type: cell-based
Source text: (§1) NIH/3T3 fibroblasts at passage 126 were purchased from the American Type Culture Collection, Rockville, Md. Cultures from passages 129-133 were used in the chemotaxis assays. Cultures were propagated in DMEM supplemented with 10%. Calf serum and approximately 1% antibiotic antimycotic solution. Human dermal fibroblasts (HDFs) were purchased from Clonetics, Inc. (San Diego, Calif.) at passage 2. Cultures from passages 3-5 were used in the chemotaxis assays. Cultures were cultivated in DMEM supplemented with 20% FBS (Hyclone Laboratories, Inc., Logan, Utah) and approximately 1% antibiotic antimycotic solution (Gibco, Grand Island, N.Y.).
The procedure used to determine cellular chemotaxis was a combination of two known methodologies. A modification of Boyden's chamber was used as follows: Millicell-PCF (Millipore, Inc., Bedford, Mass.) (12.0 μm) 12.0 mm diameter inserts were placed in individual wells of 24 well plates to create the upper and lower chemotaxis chambers. Chemotaxis results were arrived at by performing checkerboard analysis for every combination of cells and growth factors. […] Briefly, cultures were trypsanized and placed in DMEM+0.1% Bovine Serum Albumin (BSA) (Sigma Chemical Co., St. Louis, Mo.) for approximately one hour at 37° C. in a 5% CO2 humidified chamber. Tow to 2.5×10^5 cells in 50 μl were added per insert to the upper chamber of the setup of the 24 well plates. Treatments were added as mentioned above. The assay was kept at 37° C. in a 5% CO2 humidified chamber for 4 hours. All combinations tested were performed in triplicate. At the end of 4 hours, the plates were removed from the incubator and the filters were stained following the protocol for staining included with the Millicell-PCT inserts. Briefly, the fluid surrounding the inside and outside of the Millicell-PCF inserts were removed. Three percent glutaraldehyde (Sigma Chemical Co., St. Louis, Mo.) was added to the outside and inside of the inserts for approximately 20 minutes. Following removal of the 3.0% glutaraldehyde, 0.5% Triton X-100 (E.M. Science, Cherry Hill, N.J.) was added for 5-7 minutes. On removal of the 0.5% Triton X-100, Fisher's Hematoxylin Solution Gill's Formulation (Fisher Scientific, Newark, Del.) No.1 was added for about 10 minutes. This solution was washed off in running distilled water for about 5 minutes. Using a cotton swab the upper side of the filter was swabbed to remove cells which had not migrated. Filters, were mounted lower side facing up on slides in Crystal Mount™ (Biomedia, Inc., Foster City, Calif.) solution and 10 random field were counted per slide both visually at 400× and at 200×using an Image Analyzing System to automate the enumeration of the cells on the underside of the filters.
(§2) As required, checkerboard analysis was carried out to determine random migration, and positive and negative chemotaxis. Growth factors were added to the upper and/or lower chambers to observe whether cells migrated towards the GF alone (chemotaxis), whether migration was random irrespective of whether the growth factor was added to the upper or lower well (chemokinesis) or whether cell migration was against the chemotactic gradient (negative chemotaxis).

[6] = system: human dermal fibroblasts (HDFs); test: Cell chemotaxis assay (modified Boyden's chamber), human dermal fibroblasts; assay type: cell-based
Source text: as §1
The procedure used to determine cellular chemotaxis was a combination of two known methodologies. A modification of Boyden's chamber was used as follows: Millicell-PCF (Millipore, Inc., Bedford, Mass.) (12.0 μm) 12.0 mm diameter inserts were placed in individual wells of 24 well plates to create the upper and lower chemotaxis chambers. Chemotaxis results were arrived at by performing checkerboard analysis for every combination of cells and growth factors. Concentrations ranging from 0.1, 1, 10, 100 ng/ml with/without added heparin (10 U/ml) were used for FGF-1, FGF-2 (no heparin) and FGF-4 with all the cell types mentioned in the materials section. Briefly, cultures were trypsanized and placed in DMEM+0.1% Bovine Serum Albumin (BSA) (Sigma Chemical Co., St. Louis, Mo.) for approximately one hour at 37° C. in a 5% CO2 humidified chamber. Tow to 2.5×10^5 cells in 50 μl were added per insert to the upper chamber of the setup of the 24 well plates. Treatments were added as mentioned above. The assay was kept at 37° C. in a 5% CO2 humidified chamber for 4 hours. All combinations tested were performed in triplicate. At the end of 4 hours, the plates were removed from the incubator and the filters were stained following the protocol for staining included with the Millicell-PCT inserts. Briefly, the fluid surrounding the inside and outside of the Millicell-PCF inserts were removed. Three percent glutaraldehyde (Sigma Chemical Co., St. Louis, Mo.) was added to the outside and inside of the inserts for approximately 20 minutes. Following removal of the 3.0% glutaraldehyde, 0.5% Triton X-100 (E.M. Science, Cherry Hill, N.J.) was added for 5-7 minutes. On removal of the 0.5% Triton X-100, Fisher's Hematoxylin Solution Gill's Formulation (Fisher Scientific, Newark, Del.) No.1 was added for about 10 minutes. This solution was washed off in running distilled water for about 5 minutes. Using a cotton swab the upper side of the filter was swabbed to remove cells which had not migrated. Filters, were mounted lower side facing up on slides in Crystal Mount™ (Biomedia, Inc., Foster City, Calif.) solution and 10 random field were counted per slide both visually at 400× and at 200×using an Image Analyzing System to automate the enumeration of the cells on the underside of the filters.
as §2

[7] = Compatibility of TGF-β2 in Topical Fibrinogen Complex (ELISA, bio-assay); conditions: after two weeks in TFC at 2-8° C.
Procedure: Fibrinogen and thrombin were prepared per instruction of the American Red Cross, Rockville, Md. Upon reconstitution, the protein concentration of the Topical Fibrinogen Complex, (TFC) was 120 mg/ml (the standard formulation for hemostasis). The human thrombin was reconstituted with 40 mM CaCl2 to yield a solution at 300 units/ml.
To evaluate the compatibility of transforming growth factor β2 (TGF-β2) in Topical Fibrinogen Complex, TFG-β2 (purified recombinant human protein provided by Genzyme Corp., Framingham, Mass.) was spiked into TFC at 10 and 1 μg/ml. Samples were incubated for two weeks at 2-8° C. TGF-β2 was extracted for analysis by passing the gel-like material through a narrow bore stopcock connected to two syringes.

O=c1[nH]cc(F)c(=O)[nH]1 [5-FU, 5-fluorouracil]
concentration in water saturated with 5-FU [1]: 17000 µg/mL
duration of 5-FU delivery [2]: at least 75 hours

CC(=O)O[C@H]1C(=O)[C@@]2(C)[C@H]([C@H](OC(=O)c3ccccc3)[C@]3(O)C[C@H](OC(=O)[C@H](O)[C@@H](NC(=O)c4ccccc4)c4ccccc4)C(C)=C1C3(C)C)[C@]1(OC(C)=O)CO[C@@H]1C[C@@H]2O [taxol, paclitaxel]
time OVCAR cells were significantly inhibited [3]: up to 85 days

fibronectin [reference compound]
cell morphology [4]: acquired a cobblestone shape
concentration of maximal chemotactic response [5]: 20 µg/mL
migrated cells (checkerboard analysis) ([5]; lower 0 μg/ml, upper 20 μg/ml): 69.6 +/− 12.25
migrated cells (checkerboard analysis) ([5]; lower 0 μg/ml, upper 50 μg/ml): 62.0 +/− 2.616
migrated cells (checkerboard analysis) ([5]; lower 10 μg/ml, upper 0 μg/ml): 68.03 +/− 10.793
migrated cells (checkerboard analysis) ([5]; lower 10 μg/ml, upper 10 μg/ml): 47.53 +/− 5.605
migrated cells (checkerboard analysis) ([5]; lower 10 μg/ml, upper 20 μg/ml): 64.86 +/− 7.961
migrated cells (checkerboard analysis) ([5]; lower 10 μg/ml, upper 50 μg/ml): 74.66 +/− 3.946
migrated cells (checkerboard analysis) ([5]; lower 20 μg/ml, upper 0 μg/ml): 90.53 +/− 5.203
migrated cells (checkerboard analysis) ([5]; lower 20 μg/ml, upper 10 μg/ml): 88.73 +/− 4.152
migrated cells (checkerboard analysis) ([5]; lower 20 μg/ml, upper 20 μg/ml): 56.9 +/− 3.289
migrated cells (checkerboard analysis) ([5]; lower 20 μg/ml, upper 50 μg/ml): 76.23 +/− 1.8190
migrated cells (checkerboard analysis) ([5]; lower 50 μg/ml, upper 0 μg/ml): 72.43 +/− 8.276
migrated cells (checkerboard analysis) ([5]; lower 50 μg/ml, upper 10 μg/ml): 91.3 +/− 1.003
migrated cells (checkerboard analysis) ([5]; lower 50 μg/ml, upper 20 μg/ml): 63.26 +/− 3.835
migrated cells (checkerboard analysis) ([5]; lower 50 μg/ml, upper 50 μg/ml): 57.46 +/− 2.287
migrated cells (checkerboard analysis) ([5]; lower compartment 0 μg/ml, upper compartment 10 μg/ml): 62.3 +/− 3.269
concentration of maximal chemotactic response [6]: 20 µg/mL

B1: TGF-β2: purified recombinant human protein provided by Genzyme Corp., spiked into TFC / fibrin clot (protein, UniProt P61812 303-414, looked up)
Transforming growth factor …: ALDAAYCFRNVQDNCCLRPLYIDFKRDLGWKWIHEPKGYNANFCAGACPYLWSSDTQHSRVLSLYNTINPEASASPCCVSQDLEPLTILYYIGKTPKIEQLSNMIVKSCKCS
bio-assay of extract [7]: bioactive
